Test results reported in patent US8883798B2, “Pyrimidine compounds inhibiting the formation of nitric oxide and prostaglandin E2, method of production thereof and use thereof” (Ustav Organicke Chemie a Biochemie Akademie Ved CR, V.V.I., priority 2011, dated 2014).

What was measured:
[1] = system: production of prostaglandin E2 (PGE2); assay: Production of prostaglandin E2 (PGE2) in cultures of mouse peritoneal cells stimulated with LPS (ELISA kit); type: cell-based, mice; conditions: for Production of prostaglandins IC50 (μmol · 1^−1) average value and range of values: Table 3B, 6 h; for Production of prostaglandins in % of the controls: Table 3A, substance 50 μmol·l^−1, 6 h
Protocol: (§1) Under in vitro conditions, the effect of the pyrimidine compounds according to this invention was tested in terms of the production of nitric oxide (NO) and in terms of the production of prostaglandin E2 (PGE2) in cultures of the peritoneal cells of mice.
The influence on the production of prostaglandin E2 (PGE2) in vitro caused by the activity of the pyrimidine compounds according to the submitted invention was determined in cultures of the peritoneal cells of mice using a commercial kit (R&DSystems). The concentrations of PGE2 after lipopolysacharide (LPS) stimulation reached in the individual experiments values in a range of 22 to 91 ng·ml^−1 and for the purposes of comparison between the experiments were considered as 100%. The influence of the substances on the production of PGE2 was evaluated in percentage with respect to the control values.
(§2) Experiments were performed on mice peritoneal cells C57BL/6 (Charles River, Germany—AnLabu).
(§3) NO production was induced using IFN-g (5000 pg/mL) plus LPS (100 pg/mL); evaluated (Griess reagent) after 24 h of the cell cultivation (2×10^6/mL). PGE2 was induced using LPS (10 ng/mL); evaluated (ELISA) following 6 h cultivation of cells (3×10^6/mL). Cell longevity was evaluated using WST-1 (tetrazolium salt), following 24 h cultivation of cells (1×10^6/mL). The values mentioned in the table represent the effects of the substances tested in a concentration of 50 μmol·l^−1.

peritoneal cells of mice = assay: Cell viability of mouse peritoneal cells (WST-1 kit); type: cell-based; conditions: substance 50 μmol·l^−1, 24 h; for Cell viabilities in % of the controls: Table 3B; for Cell viability in % of the controls: Table 3A
Protocol: Cell viability was determined in the standard way using a WST-1 kit (Roche). The values of the viability of the control cells were for the purposes of comparison between experiments considered as 100%. The influence of the substances on the longevity of the cells was evaluated in percentage with respect to the control values.
as §2, §3

[2] = system: production of nitric oxide (NO); assay: Production of nitric oxide (NO) in cultures of mouse peritoneal cells stimulated with IFN-γ plus LPS (Griess reagent); type: cell-based, mice; conditions: substance 50 μmol·l^−1, IFN-g plus LPS, 24 h
Protocol: as §1
NO is a product of the metabolism of L-arginine, quickly changes to […], which are then measured using the Griess reagent system. Under normal conditions, the production of NO is practically zero. It only occurs after some stimulation. In these experiments, interferon-gamma (IFN-γ) and bacterial lipopolysacharide (LPS) were used as stimulators. The values of NO induced in this way fluctuated in the individual experiments in a range from 52 to 89 μmol·l^−1; for the purposes of comparison between the experiments they were considered as 100%. The production of NO after the application of the substances was expressed in percentage with respect to the control values. (The lower the value, the higher the inhibition effect of the substances on NO production.) IC50 are the concentrations of the substances reducing the production of NO by 50% with respect to the controls.
as §2, §3

SMILES | Production of prostaglandins IC50 (μmol · 1^−1) average value and range of values [1] | Cell viabilities in % of the controls (peritoneal cells of mice) | Production of nitric oxide in % of the controls ([2]; Table 3B) | Production of prostaglandins in % of the controls [1] | Cell viability in % of the controls (peritoneal cells of mice) | Production of nitric oxide in % of the controls ([2]; Table 3A)
CCCCc1c(-c2ccco2)nc(N)nc1-c1cc2ccccc2s1 [Substance 131] | 83.56 ± 5.83; n = 4 μmol · 1^−1 | 98.88 ± 1.65; n = 8 % of the controls | 49.76 ± 4.85; n = 4 % of the controls | – | – | –
Cc1c(Cl)nc(N=CN(C)C)nc1Cl [Substance 13] | – | – | – | 59.98 ± 1.82 % of the controls | 77.29 ± 3.69 % of the controls | 21.39 ± 4.78 % of the controls
Cc1c(Cl)nc(NC=O)nc1Cl [Substance 48] | – | – | – | 36.31 ± 1.99 % of the controls | 66.37 ± 8.13 % of the controls | 1.35 ± 0.01 % of the controls
CCCCc1c(Cl)nc(N)nc1-c1cc2ccccc2o1 [Substance 126] | 87.25 ± 13.99; n = 2 μmol · 1^−1 | 102.56 ± 5.92; n = 4 % of the controls | 78.18 ± 9.03; n = 4 % of the controls | – | – | –
CCCCc1c(Cl)nc(NCc2ccco2)nc1Cl [Substance 144] | 0.20 ± 0.33; n = 4 μmol · 1^−1 | 150.27 ± 4.96; n = 8 % of the controls | 83.33 ± 11.72; n = 6 % of the controls | – | – | –
CCCCc1c(Cl)nc(N)nc1-c1cc2ccccc2o1 [Substance 44] | – | – | – | – | 147.78 ± 5.90 % of the controls | 62.62 ± 0.19 % of the controls
CCCCc1c(-c2ccccc2)nc(N)nc1-c1ccoc1 [Substance 102] | 54.8 ± 10.70; n = 6 μmol · 1^−1 | 110.35 ± 5.69; n = 8 % of the controls | 68.34 ± 4.63; n = 6 % of the controls | – | – | –
CCCCc1c(-c2ccccc2)nc(N)nc1-c1cccnc1 [Substance 78] | 59.49 ± 9.09; n = 2 μmol · 1^−1 | 78.08 ± 5.20; n = 4 % of the controls | 52.81 ± 2.91; n = 4 % of the controls | – | – | –
CCCCc1c(-c2ccncc2)nc(N)nc1-c1cc2ccccc2o1 [Substance 120] | 83.44 ± 11.03; n = 2 μmol · 1^−1 | 92.51 ± 2.77; n = 4 % of the controls | 65.32 ± 3.72; n = 4 % of the controls | – | – | –
C#CCc1c(Cl)nc(NC=O)nc1Cl [Substance 58] | – | – | – | 12.30 ± 0.54 % of the controls | – | 0.69 ± 0.26 % of the controls
CCCCCCc1c(Cl)nc(NC=O)nc1Cl [Substance 55] | – | – | – | – | 144.97 ± 18.27 % of the controls | 14.77 ± 9.19 % of the controls
CCCCc1c(Cl)nc(C)nc1Cl [Substance 62] | – | – | – | – | 80.93 ± 0.84 % of the controls | 41.21 ± 5.50 % of the controls
CCCCc1c(-c2ccccc2)nc(N)nc1-c1ccccc1 [Substance 45] | – | – | – | – | 297.33 ± 23.17 % of the controls | 73.29 ± 1.40 % of the controls
CCCCc1c(Cl)nc(N)nc1-c1ccncc1 [Substance 85] | – | 87.62 ± 6.58; n = 4 % of the controls | 49.34 ± 4.20; n = 4 % of the controls | – | – | –
CCC(C)c1c(Cl)nc(N)nc1I (stereo not drawn) [Substance 37] | – | – | – | – | 49.11 ± 3.29 % of the controls | 6.67 ± 5.15 % of the controls
Cc1c(Cl)nc(N)nc1Cl [Substance 25] | – | – | – | – | 98.55 ± 17.60 % of the controls | 47.30 ± 13.48 % of the controls
Nc1nc(Cl)c(-c2ccccc2)c(Cl)n1 [Substance 31] | – | – | – | – | 82.53 ± 8.73 % of the controls | 36.11 ± 8.38 % of the controls
CCCCc1c(-c2ccncc2)nc(N)nc1-c1cccnc1 [Substance 84] | – | 109.54 ± 4.48; n = 8 % of the controls | 47.55 ± 7.12; n = 6 % of the controls | – | – | –
CCCCc1c(-c2cccnc2)nc(N)nc1-c1cccnc1 [Substance 81] | – | 82.21 ± 7.34; n = 8 % of the controls | 50.07 ± 3.04; n = 6 % of the controls | – | – | –

SMILES | Production of prostaglandins IC50 (μmol · 1^−1) average value and range of values [1] | Cell viabilities in % of the controls (peritoneal cells of mice) | Production of nitric oxide in % of the controls ([2]; Table 3B) | Production of prostaglandins in % of the controls [1] | Cell viability in % of the controls (peritoneal cells of mice) | Production of nitric oxide in % of the controls ([2]; Table 3A)
CCCCc1c(-c2ccncc2)nc(N)nc1-c1ccc(OC)cc1 [Substance 83] | – | 95.41 ± 4.70; n = 8 % of the controls | 63.81 ± 5.32; n = 6 % of the controls | – | – | –
CCc1c(Cl)nc(N)nc1Cl [Substance 26] | – | – | – | – | 91.53 ± 10.78 % of the controls | 48.59 ± 9.49 % of the controls
Nc1nc(Br)c(Cc2ccccc2)c(Br)n1 [Substance 40] | – | – | – | – | 90.18 ± 3.75 % of the controls | 32.45 ± 10.99 % of the controls
CCC(C)c1c(I)nc(N)nc1I (stereo not drawn) [Substance 36] | – | – | – | – | – | 2.80 ± 1.28 % of the controls
CCCCCCc1c(Cl)nc(N=CN(C)C)nc1Cl [Substance 22] | – | – | – | – | – | 61.34 ± 3.91 % of the controls
C#CCc1c(Cl)nc(N)nc1Cl [Substance 33] | – | – | – | – | 90.58 ± 17.05 % of the controls | 35.98 ± 14.08 % of the controls
CCCCc1c(-c2cccnc2)nc(N)nc1-c1cccnc1 [Substance 46] | – | – | – | – | 107.08 ± 2.94 % of the controls | 70.00 ± 4.82 % of the controls
CCCCc1c(-c2cc3ccccc3o2)nc(N)nc1-c1cc2ccccc2o1 [Substance 47] | – | – | – | – | 75.01 ± 13.63 % of the controls | 41.23 ± 18.49 % of the controls
Nc1nc(I)c(Cc2ccccc2)c(I)n1 [Substance 38] | – | – | – | – | 78.60 ± 5.33 % of the controls | 34.80 ± 0.31 % of the controls
CC(C)c1c(Cl)nc(N)nc1Cl [Substance 29] | – | – | – | – | 91.18 ± 9.90 % of the controls | 36.97 ± 8.22 % of the controls
CCCCc1c(Cl)nc(N)nc1-c1ccccc1 [Substance 41] | – | – | – | – | 108.24 ± 7.40 % of the controls | 47.82 ± 6.08 % of the controls
CCC(C)c1c(Cl)nc(N)nc1Cl (stereo not drawn) [Substance 30] | – | – | – | – | 111.90 ± 9.63 % of the controls | 47.48 ± 6.22 % of the controls
CCCCc1c(Cl)nc(N)nc1-c1ccsc1 [Substance 42] | – | – | – | – | 157.36 ± 5.16 % of the controls | 63.18 ± 0.89 % of the controls
CCCCc1c(Cl)nc(N(C)C)nc1Cl [Substance 63] | – | – | – | – | – | 64.97 ± 2.92 % of the controls
CCCCc1c(Cl)ncnc1Cl [Substance 61] | – | – | – | – | 73.73 ± 0.99 % of the controls | 27.38 ± 1.88 % of the controls
C=C(Cl)Cc1c(Cl)nc(NC=O)nc1Cl [Substance 60] | – | – | – | – | 37.13 ± 1.27 % of the controls | 0.13 ± 0.13 % of the controls
Nc1nc(Cl)c(Cc2ccccc2)c(I)n1 [Substance 39] | – | – | – | – | 67.81 ± 3.08 % of the controls | 18.30 ± 7.66 % of the controls
CCCCc1c(Cl)nc(N)nc1-c1cccnc1 [Substance 43] | – | – | – | – | 166.77 ± 22.51 % of the controls | 58.68 ± 0.92 % of the controls
CCCCc1c(Cl)nc(N)nc1-c1cccs1 [Substance 93] | 11.47 ± 2.73; n = 4 μmol · 1^−1 | 74.47 ± 0.81; n = 4 % of the controls | – | – | – | –
